Source: the supplement of paper PMC11061612

How the values were obtained:
[1] = test system: ES7 (Ewing's Sarcoma); assay: Bliss excess, mean over the matrix (fraction); higher = more synergy
Outline: (§1)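 After 24 hours at 37°C and 5% CO2 in 1536-well plates, cells in DMEM/F12 or RPMI plus 10% FBS received two-drug dose matrices for 72 hours. Viability came from CellTiter-Glo 2.0 luminescence and was scaled as inhibition, anchored at 0 by vehicle wells and at 1 by blank wells. Combination Emax is taken as the second-highest inhibition in the matrix, and Bliss excess as the observed combination effect less EA + EB − EA·EB, with EA and EB the single-agent effects.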

[2] = test system: DOV13 (Ovarian Carcinoma); assay: as above
Outline: as §1

[3] = test system: KARPAS-1106P (B-Cell Non-Hodgkin's Lymphoma); assay: as above
Outline: as §1

[4] = test system: COR-L95 (Small Cell Lung Carcinoma); assay: as above
Outline: as §1

[5] = test system: NCI-H1299 (Non-Small Cell Lung Carcinoma); assay: as above
Outline: as §1

[6] = test system: MDA-MB-157 (Breast Carcinoma); assay: as above
Outline: as §1

[7] = test system: SN12C (Kidney Carcinoma); assay: as above
Outline: as §1

[8] = test system: ES7 (Ewing's Sarcoma); assay: combination Emax (second highest fraction inhibited in the dose matrix, 72 h); higher = more inhibition; extreme values may be limits of the assay
Outline: as §1

[9] = test system: NALM-6 (B-Lymphoblastic Leukemia); assay: as above
Outline: as §1

[10] = test system: KARPAS-620 (Plasma Cell Myeloma); assay: as above
Outline: as §1

[11] = test system: MDA-MB-231 (Breast Carcinoma); assay: as above
Outline: as §1

[12] = test system: IHH-4 (Thyroid Gland Carcinoma); assay: as above
Outline: as §1

[13] = test system: DOV13 (Ovarian Carcinoma); assay: as above
Outline: as §1

[14] = test system: NCI-H211 (Small Cell Lung Carcinoma); assay: as above
Outline: as §1

[15] = test system: OCI-AML2 (Acute Myeloid Leukemia); assay: as above
Outline: as §1

[16] = test system: COR-L95 (Small Cell Lung Carcinoma); assay: as above
Outline: as §1

[17] = test system: NCI-H1299 (Non-Small Cell Lung Carcinoma); assay: as above
Outline: as §1

[18] = test system: U-266 (Plasma Cell Myeloma); assay: as above
Outline: as §1

[19] = test system: KATOIII (Gastric Carcinoma); assay: as above
Outline: as §1

[20] = test system: G-292-Clone-A141B1 (Osteosarcoma); assay: as above
Outline: as §1
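Wherever Bliss excess, mean over the matrix is given: after 72 h of two-drug dosing.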

Compound | Bliss excess [1] | Bliss excess [2] | Bliss excess [3] | Bliss excess [4] | Bliss excess [5] | Bliss excess [6] | Bliss excess [7] | combination Emax [8] | combination Emax [9] | combination Emax [10] | combination Emax [11] | combination Emax [12] | combination Emax [13] | combination Emax [14] | combination Emax [15] | combination Emax [16] | combination Emax [17] | combination Emax [18] | combination Emax [19] | combination Emax [20]
CS(=O)(=O)CCNCc1ccc(-c2ccc3ncnc(Nc4ccc(OCc5cccc(F)c5)c(Cl)c4)c3c2)o1 [Lapatinib] + Cn1cnc2c(F)c(Nc3ccc(Br)cc3Cl)c(C(=O)NOCCO)cc21 [Selumetinib] (first compound max 10 µM, 7x7, partner max 10 µM) | -0.0355 | -0.0166 | 0.0436 | -0.0382 | 0.0085 | -0.0598 | -0.0375 | 0.559 | 0.847 | 0.72 | 0.631 | 0.563 | 0.357 | 0.876 | 1 | 0.207 | 0.338 | 0.621 | 0.523 | 0.192
CN(CCO)CC[C@H](CSc1ccccc1)Nc1ccc(S(=O)(=O)NC(=O)c2ccc(N3CCC([C@@H](O)c4ccccc4-c4ccc(Cl)cc4)CC3)cc2)cc1S(=O)(=O)C(F)(F)F [AZD4320] + CS(=O)(=O)CCNCc1ccc(-c2ccc3ncnc(Nc4ccc(OCc5cccc(F)c5)c(Cl)c4)c3c2)o1 [Lapatinib] (first compound max 1 µM, 7x7, partner max 10 µM) | 0.0769 | 0.0488 | -0.0212 | 0.0386 | -0.0664 | 0.019 | -0.0385 | 0.984 | 1 | 1 | 0.951 | 0.268 | 1 | 1 | 1 | 1 | 0.244 | 0.701 | 0.586 | 0.949
CC1(C)CCC(CN2CCN(c3ccc(C(=O)NS(=O)(=O)c4ccc(NCC5CCOCC5)c([N+](=O)[O-])c4)c(Oc4cnc5[nH]ccc5c4)c3)CC2)=C(c2ccc(Cl)cc2)C1 [Venetoclax] + CS(=O)(=O)CCNCc1ccc(-c2ccc3ncnc(Nc4ccc(OCc5cccc(F)c5)c(Cl)c4)c3c2)o1 [Lapatinib] (first compound max 1 µM, 7x7, partner max 10 µM) | 0.0086 | -0.0228 | -0.0183 | -0.0566 | -0.0402 | -0.0549 | -0.0179 | 0.613 | 0.911 | 0.981 | 0.17 | 0.175 | 0.166 | 1 | 1 | 0.677 | 0.125 | 0.254 | 0.291 | 0.113
Cc1c2c(nn1C)CSCc1cc(n(C)n1)CSc1cc(c3ccccc3c1)OCCCc1c(C(=O)O)n(C)c3c-2c(Cl)ccc13 [AZD5991] + CS(=O)(=O)CCNCc1ccc(-c2ccc3ncnc(Nc4ccc(OCc5cccc(F)c5)c(Cl)c4)c3c2)o1 [Lapatinib] (first compound max 1 µM, 7x7, partner max 10 µM) | 0.0148 | 0.0072 | 0.0482 | -0.0199 | -0.0243 | 0.0108 | 0.0035 | 0.737 | 0.761 | 1 | 0.263 | 0.278 | 0.185 | 0.979 | 0.978 | 0.177 | 0.301 | 0.845 | 0.415 | 0.264
O=C(c1cc(Cc2n[nH]c(=O)c3ccccc23)ccc1F)N1CCN(C(=O)C2CC2)CC1 [Olaparib] + COc1nnc2ccc(N3CCC(c4ccc(OCCN5CCN(C)C(=O)[C@H]5C)cc4)CC3)nn12 [AZD5153] (first compound max 10 µM, 7x7, partner max 1 µM) | 0.0166 | -0.0778 | -0.0162 | -0.0488 | -0.0826 | -0.0507 | -0.0222 | 0.944 | 0.911 | 0.666 | 0.626 | 0.535 | 0.455 | 0.992 | 0.983 | 0.455 | 0.637 | 0.291 | 0.4 | 0.224
C[C@@H](Nc1cc(F)cc(F)c1)c1cc(C(=O)N(C)C)cc2c(=O)cc(N3CCOCC3)oc12 [AZD8186] + C1CN(CCC1(C(=O)N[C@@H](CCO)C2=CC=C(C=C2)Cl)N)C3=NC=NC4=C3C=CN4 [AZD5363] (first compound max 10 µM, 7x7, partner max 10 µM) | 0.0043 | 0.026 | -0.0234 | -0.0781 | 0.0024 | 0.0227 | -0.0471 | 0.509 | 0.674 | 0.767 | 0.281 | 0.227 | 0.28 | 0.406 | 0.473 | 0.225 | 0.314 | 0.138 | 0.0505 | 0.515
N#Cc1cnc(Nc2cc(NC[C@H]3CNCCO3)c(C(F)(F)F)cn2)cn1 [SRA737] + O=c1[nH]cc(F)c(=O)[nH]1 [5-Fluorouracil] (first compound max 10 µM, 7x7, partner max 20 µM) | 0.0157 | 0.0258 | 0.0407 | -0.0218 | -0.0191 | 0.0781 | -0.0474 | 0.82 | 0.896 | 0.414 | 0.271 | 0.934 | 0.347 | 0.8 | 1 | 0.232 | 0.448 | 0.633 | 0.565 | 0.121
O=C(c1cc(Cc2n[nH]c(=O)c3ccccc23)ccc1F)N1CCN(C(=O)C2CC2)CC1 [Olaparib] + CN(CC[C@H](CSC1=CC=CC=C1)NC2=C(C=C(C=C2)S(=O)(=O)NC(=O)C3=CC=C(C=C3)N4CCC(CC4)[C@H](C5=CC=CC=C5C6=CC=C(C=C6)Cl)O)S(=O)(=O)C(F)(F)F)CCO [AZD4320] (first compound max 10 µM, 7x7, partner max 1 µM) | 0.0156 | 0.0543 | -0.035 | 0.0593 | -0.0463 | -0.0094 | -0.0401 | 0.969 | 0.974 | 1 | 0.668 | 0.206 | 0.86 | 1 | 1 | 1 | 0.114 | 0.631 | 0.37 | 0.419
N#Cc1cnc(Nc2cc(NC[C@H]3CNCCO3)c(C(F)(F)F)cn2)cn1 [SRA737] + CCc1c2c(nc3ccc(O)cc13)-c1cc3c(c(=O)n1C2)COC(=O)[C@]3(O)CC [SN-38] (first compound max 10 µM, 7x7, partner max 0.3 µM) | -0.0138 | -0.0469 | -0.0918 | -0.0191 | 0.0179 | 0.0125 | -0.0485 | 1 | 1 | 0.658 | 0.908 | 0.98 | 0.994 | 0.987 | 1 | 0.572 | 0.559 | 0.576 | 0.543 | 0.41
CS(=O)(=O)CCNCc1ccc(-c2ccc3ncnc(Nc4ccc(OCc5cccc(F)c5)c(Cl)c4)c3c2)o1 [Lapatinib] + NC1(c2ccc(-c3nc4ccn5c(=O)[nH]nc5c4cc3-c3ccccc3)cc2)CCC1 [MK-2206] (first compound max 10 µM, 7x7, partner max 10 µM) | 0.036 | 0.0362 | -0.0022 | 0.0048 | 0.0027 | -0.0057 | -0.0236 | 0.938 | 0.957 | 0.928 | 0.729 | 0.92 | 0.867 | 0.944 | 0.912 | 0.904 | 0.407 | 0.352 | 0.44 | 0.468
N#Cc1cnc(Nc2cc(NC[C@H]3CNCCO3)c(C(F)(F)F)cn2)cn1 [SRA737] + Nc1ccn([C@@H]2O[C@H](CO)[C@@H](O)C2(F)F)c(=O)n1 [Gemcitabine] (first compound max 10 µM, 7x7, partner max 0.3 µM) | 0.0172 | 0.0821 | 0.0126 | -0.0067 | 0.0831 | 0.0499 | 0.0884 | 0.989 | 0.954 | 0.801 | 0.838 | 1 | 0.97 | 0.977 | 1 | 0.391 | 0.765 | 0.78 | 0.557 | 0.317
C[C@@H]1COCCN1c1cc(C2([S@](C)(=N)=O)CC2)nc(-c2ccnc3[nH]ccc23)n1 [AZD6738] + C1CC(C1)(C(=O)[O-])C(=O)[O-].N.N.[Pt+2] [Carboplatin] (first compound max 10 µM, 7x7, partner max 10 µM) | 0.0089 | -0.0236 | -0.0247 | -0.106 | -0.0401 | -0.0061 | -0.026 | 0.777 | 0.924 | 0.399 | 0.576 | 0.773 | 0.818 | 0.61 | 0.951 | – | 0.508 | 0.316 | 0.424 | 0.328
N#Cc1cnc(Nc2cc(NC[C@H]3CNCCO3)c(C(F)(F)F)cn2)cn1 [SRA737] + C=CCn1c(=O)c2cnc(Nc3ccc(N4CCN(C)CC4)cc3)nc2n1-c1cccc(C(C)(C)O)n1 [AZD1775] (first compound max 10 µM, partner max 1 µM) | 0.102 | 0.132 | 0.0143 | 0.0077 | 0.0448 | 0.119 | -0.0184 | 0.829 | 0.969 | 0.779 | 0.807 | 0.825 | – | 0.971 | 1 | 0.299 | 0.674 | 0.599 | 0.392 | 0.239
